In brackets after ≈: the same amount, converted by molar mass.
Columns and labels:
[1] = test system: Micrococcus flavus ATCC 10240; assay: "In vitro" MIC, Micrococcus flavus; assay type: cell-based; conditions: ATCC10240; Micrococcus flavus ATCC 10240; dextrose agar, 37° C., 20 hours; read-out: "In vitro" MIC
Procedure: (§1) Antimicrobial pharmacological activity (G. L. Daquet and Y. A. Chabbect, Techniques en bacteriologie (Techniques in bacteriology), vol. 3, Flammarion Medecine-Sciences, Paris, 1972, and W. B. Hugo and A. D. Rusell, Pharmaceutical Microbiology, Blackwell Scientific Publications, London (1977).
Micrococcus flavus ATTC 10240
(§2) A streak culture of each of the microorganisms is formed in tubes of antibiotics agar no. 1 and incubated for 20 hours at 37° C. A culture loop is then taken and a culture is formed in a tryptone-soya broth and incubated for 20 hours at 37° C. The resulting culture is diluted to 1/4 with Ringer's physiological solution to give a standardized suspension of 10^5 ufc/ml for each organism.
(§3) Starting from a solution of 1000 μg/ml in 0.1N NaOH, each product is diluted successively in dextrose agar (melted beforehand and kept at 50° C.) to give the following concentrations: 64-32-16-8-4-2-1-0.5-0.25-0.125 μg of derivative/ml of medium.
(§4) After this, each concentration of each product is divided up into Petri dishes of 10 cm diameter at a rate of 10 ml of medium per dish and using as many dishes as there are microorganisms to be tested.
(§5) Once the medium has cooled, the dishes are treated with the inoculations at a rate of 0.4 ml of inoculation per dish. They are spread out with a Drigalski loop and the supernatant is collected. The inoculated dishes are incubated at 37° C. for 20 hours.

[2] = test system: Klebsiella pneumoniae ATCC 10031; assay: "In vitro" MIC, Klebsiella pneumoniae; assay type: cell-based; conditions: ATCC10031; Klebsiella pneumoniae ATCC 10031; dextrose agar, 37° C., 20 hours; read-out: "In vitro" MIC
Procedure: as §1
Klebsiella pneumoniae ATCC 10031
as §2, §3, §4, §5

[3] = test system: Enterobacter cloacae CHSP-20; assay: "In vitro" MIC, Enterobacter cloacae; assay type: cell-based; conditions: CHSP20; Enterobacter cloacae CHSP-20; dextrose agar, 37° C., 20 hours; read-out: "In vitro" MIC
Procedure: as §1
Enterobacter cloacae CHSP-20
as §2, §3, §4, §5

[4] = test system: Streptococcus faecalis ATCC 10541; assay: "In vitro" MIC, Streptococcus faecalis; assay type: cell-based; conditions: Enterococcus faecalis, ATCC10541; Streptococcus faecalis ATCC 10541; dextrose agar, 37° C., 20 hours; read-out: "In vitro" MIC
Procedure: as §1
Streptococcus faecalis ATCC 10541
as §2, §3, §4, §5

Gram-positive cocci = assay: "In vitro" antimicrobial activity compared with nalidixic acid, Gram-positive cocci; assay type: cell-based
Procedure: as §1, §2, §3, §4, §5

[5] = test system: Proteus mirabilis ATCC 4675; assay: "In vitro" MIC, Proteus mirabilis; assay type: cell-based; conditions: ATCC4675; Proteus mirabilis ATCC 4675; dextrose agar, 37° C., 20 hours; read-out: "In vitro" MIC
Procedure: as §1
Proteus mirabilis ATCC 4675
as §2, §3, §4, §5

[6] = test system: Pseudomonas aeruginosa 25115; assay: "In vitro" MIC, Pseudomonas aeruginosa 25115; assay type: cell-based; conditions: Pseudomonas aeruginosa 25115; dextrose agar, 37° C., 20 hours; read-out: "In vitro" MIC
Procedure: as §1
Pseudomonas aeruginosa 25115
as §2, §3, §4, §5

[7] = test system: Enterobacter aerogenes ATCC 15038; assay: "In vitro" MIC, Enterobacter aerogenes; assay type: cell-based; conditions: Klebsiella aerogenes, ATCC15038; Enterobacter aerogenes ATCC 15038; dextrose agar, 37° C., 20 hours; read-out: "In vitro" MIC
Procedure: as §1
Enterobacter aerogenes ATCC 15038
as §2, §3, §4, §5

[8] = test system: Bacillus subtilis ATCC 6633; assay: "In vitro" MIC, Bacillus subtilis; assay type: cell-based; conditions: ATCC6633; Bacillus subtilis ATCC 6633; dextrose agar, 37° C., 20 hours; read-out: "In vitro" MIC
Procedure: as §1
Bacillus subtilis ATCC 6633
as §2, §3, §4, §5

Shigella flexnerii = assay: "In vitro" MIC, Shigella flexnerii; assay type: cell-based; conditions: 20 h, read-out: "In vitro" MIC
Procedure: as §1, §2, §3, §4, §5

[9] = test system: Staphylococcus aureus ATCC 5488/23; assay: "In vitro" MIC, Staphylococcus aureus ATCC 5488/23; assay type: cell-based; conditions: ATCC5488; Staphylococcus aureus ATCC 5488/23; dextrose agar, 37° C., 20 hours; read-out: "In vitro" MIC
Procedure: as §1
Staphylococcus aureus ATCC 5488/23
as §2, §3, §4, §5

[10] = test system: Escherichia coli ATCC 10536; assay: "In vitro" MIC, Escherichia coli ATCC 10536; assay type: cell-based; conditions: ATCC10536; Escherichia coli ATCC 10536; dextrose agar, 37° C., 20 hours; read-out: "In vitro" MIC
Procedure: as §1
Escherichia coli ATCC 10536
as §2, §3, §4, §5

Sarcina lutea ATCC 9341 = assay: "In vitro" MIC, Sarcina lutea; assay type: cell-based; conditions: Micrococcus luteus, ATCC9341; Sarcina lutea ATCC 9341; dextrose agar, 37° C., 20 hours; read-out: "In vitro" MIC
Procedure: as §1, §2, §3, §4, §5

[11] = test system: Staphylococcus aureus ATCC 25178; assay: "In vitro" MIC, Staphylococcus aureus ATCC 25178; assay type: cell-based; conditions: ATCC25178; Staphylococcus aureus ATCC 25178; dextrose agar, 37° C., 20 hours; read-out: "In vitro" MIC
Procedure: as §1
Staphylococcus aureus ATCC 25178
as §2, §3, §4, §5

[12] = test system: Citrobacter freundii ATCC 11606; assay: "In vitro" MIC, Citrobacter freundii; assay type: cell-based; conditions: ATCC11606; Citrobacter freundii ATCC 11606; dextrose agar, 37° C., 20 hours; read-out: "In vitro" MIC
Procedure: as §1
Citrobacter freundii ATCC 11606
as §2, §3, §4, §5

[13] = test system: Salmonella typhimurium AMES 100; assay: "In vitro" MIC, Salmonella typhimurium AMES 100; assay type: cell-based; conditions: Salmonella enterica; Salmonella typhimurium AMES 100; dextrose agar, 37° C., 20 hours; read-out: "In vitro" MIC
Procedure: as §1
Salmonella typhimurium AMES 100
as §2, §3, §4, §5

[14] = test system: Pseudomonas aeruginosa ADSA 47; assay: "In vitro" MIC, Pseudomonas aeruginosa ADSA 47; assay type: cell-based; conditions: ADSA47; Pseudomonas aeruginosa ADSA 47; dextrose agar, 37° C., 20 hours; read-out: "In vitro" MIC
Procedure: as §1
Pseudomonas aeruginosa ADSA 47
as §2, §3, §4, §5

Escherichia coli R-1513 = assay: "In vitro" MIC, Escherichia coli R-1513; assay type: cell-based; conditions: R1513; Escherichia coli R-1513; dextrose agar, 37° C., 20 hours; read-out: "In vitro" MIC
Procedure: as §1, §2, §3, §4, §5

[15] = test system: Serratia marcescens ATTC 13880; assay: "In vitro" MIC, Serratia marcescens; assay type: cell-based; conditions: ATTC13880; Serratia marcescens ATTC 13880; dextrose agar, 37° C., 20 hours; read-out: "In vitro" MIC
Procedure: as §1
Serratia marcescens ATTC 13880
as §2, §3, §4, §5

[16] = test system: Salmonella typhimurium AMES 98; assay: "In vitro" MIC, Salmonella typhimurium AMES 98; assay type: cell-based; conditions: Salmonella enterica; Salmonella typhimurium AMES 98; dextrose agar, 37° C., 20 hours; read-out: "In vitro" MIC
Procedure: as §1
Salmonella typhimurium AMES 98
as §2, §3, §4, §5

Proteus morganii CHSP-16 = assay: "In vitro" MIC, Proteus morganii; assay type: cell-based; conditions: Morganella morganii, CHSP16; Proteus morganii CHSP-16; dextrose agar, 37° C., 20 hours; read-out: "In vitro" MIC
Procedure: as §1, §2, §3, §4, §5

[17] = test system: Gram-negative microorganisms; assay: "In vitro" antimicrobial activity compared with nalidixic acid, Gram-negative microorganisms; assay type: cell-based
Procedure: as §1, §2, §3, §4, §5

Acute toxicity to mice = conditions: mouse, in vivo, ip, suspension in 5% gum arabic, mortality over 7 days
Procedure: The experimental animals used to determine this toxicity were albino mice of the C.F.L.P. strain and of both sexes, weighing between 19 and 25 grams. After an 18-hour fasting period with water "ad libitum", the derivatives forming the subject of the present invention are administered intraperitoneally as a suspension in 5% gum arabic. The volume of suspension administered was 0.4 ml/20 grams (20 ml/kg) in all cases, the concentration of the suspension being changed according to the dose administered.
One hour after administration of the derivatives, the animals are given a standard Panlab rat-mouse food. The mortality was observed over a period of 7 days. Differences in mortality between the sexes were not observed with any of the products.

## CCCn1cc(C(=O)O)c(=O)c2cc(F)c(-n3cccc3)cc21 [Example 5, 6-fluoro-7-(pyrrol-1-yl)-1-propyl-4-oxo-1,4-dihydroquinoline-3-carboxylic acid]
[1]
  MIC: 8 µg/mL (≈ 25.5 µM)
[2]
  MIC: 0.5 µg/mL (≈ 1.59 µM)
[3]
  MIC: 4 µg/mL (≈ 12.7 µM)
[4]
  MIC: 8 µg/mL (≈ 25.5 µM)
Gram-positive cocci
  "in vitro" activity compared with nalidixic acid: greater activity towards Gram-positive cocci
[5]
  MIC: 16 µg/mL (≈ 50.9 µM)
[6]
  MIC: 32 µg/mL (≈ 102 µM)
[7]
  MIC: 8 µg/mL (≈ 25.5 µM)
[8]
  MIC: 0.125 µg/mL (≈ 0.398 µM)
Shigella flexnerii
  MIC: 4 µg/mL (≈ 12.7 µM)
[9]
  MIC: 0.5 µg/mL (≈ 1.59 µM)
[10]
  MIC: 0.5 µg/mL (≈ 1.59 µM)
Sarcina lutea ATCC 9341
  MIC: 8 µg/mL (≈ 25.5 µM)
[11]
  MIC: 0.5 µg/mL (≈ 1.59 µM)
[12]
  MIC: 8 µg/mL (≈ 25.5 µM)
[13]
  MIC: 1 µg/mL (≈ 3.18 µM)
[14]
  MIC: 32 µg/mL (≈ 102 µM)
Escherichia coli R-1513
  MIC: 8 µg/mL (≈ 25.5 µM)
[15]
  MIC: 1 µg/mL (≈ 3.18 µM)
[16]
  MIC: 1 µg/mL (≈ 3.18 µM)
Proteus morganii CHSP-16
  MIC: 8 µg/mL (≈ 25.5 µM)
[17]
  activity compared with nalidixic acid: activity of the same order as nalidixic acid
Acute toxicity to mice
  LD50 at 168 h: > 1600 mg/kg

## CCNn1cc(C(=O)O)c(=O)c2cc(F)c(-n3cccc3)cc21 [Example 8, 6-fluoro-7-(pyrrol-1-yl)-1-ethylamino-4-oxo-1,4-dihydroquinoline-3-carboxylic acid]
[1]
  MIC: 2 µg/mL (≈ 6.34 µM)
[2]
  MIC: 0.25 µg/mL (≈ 0.793 µM)
[3]
  MIC: 1 µg/mL (≈ 3.17 µM)
[4]
  MIC: 4 µg/mL (≈ 12.7 µM)
Gram-positive cocci
  "in vitro" activity compared with nalidixic acid: greater activity towards Gram-positive cocci
[5]
  MIC: 8 µg/mL (≈ 25.4 µM)
[6]
  MIC: 16 µg/mL (≈ 50.7 µM)
[7]
  MIC: 2 µg/mL (≈ 6.34 µM)
[8]
  MIC: ≤ 0.062 µg/mL
Shigella flexnerii
  MIC: 1 µg/mL (≈ 3.17 µM)
[9]
  MIC: 0.25 µg/mL (≈ 0.793 µM)
[10]
  MIC: 0.062 µg/mL (≈ 0.197 µM)
Sarcina lutea ATCC 9341
  MIC: 4 µg/mL (≈ 12.7 µM)
[11]
  MIC: 0.25 µg/mL (≈ 0.793 µM)
[12]
  MIC: 4 µg/mL (≈ 12.7 µM)
[13]
  MIC: 1 µg/mL (≈ 3.17 µM)
[14]
  MIC: ≥ 32 µg/mL
Escherichia coli R-1513
  MIC: 4 µg/mL (≈ 12.7 µM)
[15]
  MIC: 2 µg/mL (≈ 6.34 µM)
[16]
  MIC: 0.062 µg/mL (≈ 0.197 µM)
Proteus morganii CHSP-16
  MIC: 4 µg/mL (≈ 12.7 µM)
[17]
  activity compared with nalidixic acid: activity of the same order as nalidixic acid
Acute toxicity to mice
  LD50 at 168 h: > 1600 mg/kg

## Cn1cc(C(=O)O)c(=O)c2cc(F)c(-n3cccc3)cc21 [Example 1, 6-fluoro-7-(pyrrol-1-yl)-1-methyl-4-oxo-1,4-dihydroquinoline-3-carboxylic acid]
[1]
  MIC: 4 µg/mL (≈ 14 µM)
[2]
  MIC: 1 µg/mL (≈ 3.49 µM)
[3]
  MIC: 2 µg/mL (≈ 6.99 µM)
[4]
  MIC: 32 µg/mL (≈ 112 µM)
Gram-positive cocci
  "in vitro" activity compared with nalidixic acid: greater activity towards Gram-positive cocci
[5]
  MIC: 4 µg/mL (≈ 14 µM)
[6]
  MIC: 16 µg/mL (≈ 55.9 µM)
[7]
  MIC: 2 µg/mL (≈ 6.99 µM)
[8]
  MIC: 0.125 µg/mL (≈ 0.437 µM)
Shigella flexnerii
  MIC: 4 µg/mL (≈ 14 µM)
[9]
  MIC: 0.5 µg/mL (≈ 1.75 µM)
[10]
  MIC: 0.05 µg/mL (≈ 0.175 µM)
Sarcina lutea ATCC 9341
  MIC: 16 µg/mL (≈ 55.9 µM)
[11]
  MIC: 0.5 µg/mL (≈ 1.75 µM)
[12]
  MIC: 2 µg/mL (≈ 6.99 µM)
[13]
  MIC: 8 µg/mL (≈ 27.9 µM)
[14]
  MIC: ≥ 32 µg/mL
Escherichia coli R-1513
  MIC: 4 µg/mL (≈ 14 µM)
[15]
  MIC: 16 µg/mL (≈ 55.9 µM)
[16]
  MIC: 4 µg/mL (≈ 14 µM)
Proteus morganii CHSP-16
  MIC: 2 µg/mL (≈ 6.99 µM)
[17]
  activity compared with nalidixic acid: activity of the same order as nalidixic acid
Acute toxicity to mice
  LD50 at 168 h: > 800 mg/kg

From patent US4727080A, “1-substituted derivatives of 6-fluoro-7-(pyrrol-1-yl)-1,4-dihydro-4-oxoquinoline-3-carboxylic acid, their preparation and their application as drugs” (Provesan S.A., priority 1984, dated 1988)
